Assay results as given in US20210380595A1 (ARAXES PHARMA LLC, priority 2018, published 2021).

Biological target: T1, KRAS G12C 1-169, his-tagged protein, GDP-loaded (Homo sapiens, UniProt P01116, G12C)
T1 construct: KRAS G12C 1-169, his-tagged protein, GDP-loaded
Test: Biochemical assay: covalent modification of KRAS G12C measured by mass spectrometry (RapidFire/TOF or Q-Exactive)
Format: binding
Procedure: Test compounds were prepared as 10 mM stock solutions in DMSO (Fisher cat. #BP-231-100). KRAS G12C 1-169, his-tagged protein, GDP-loaded is diluted to 2 μM or 0.5 μM in buffer (20 mM Hepes, 150 mM NaCl, 1 mM MgCl2). Compounds were tested for activity as follows:
Compounds were diluted to 50× final test concentration in DMSO in 96-well storage plates. Compound stock solutions were vortexed before use and observed cwerefully for any sign of precipitation. Dilutions were as follow: • For 32 μM final compound concentration, compounds were diluted to 1600 μM (3 μL 10 mM compound stock +15.75 μL DMSO and mixed well by pipetting. • For 8 μM final compound concentration, compounds were diluted to 400 μM (2 μL 10 mM compound stock +48 μL DMSO) and mixed well by pipetting. 49 μL of the stock protein solution was added to each well of a 96-well PCR plate (Fisher cat#1423027). 1 μl of the diluted 50× compounds were added to appropriate wells in the PCR plate using 12-channel pipettor. Reactions were mixed carefully and thoroughly by pipetting up/down with a 200 μL multi-channel pipettor. The plate was sealed well with aluminum plate seal, and protein and compound were allowed to react for a desired amount of time. 5 μL of 2% formic acid (Fisher cat#A117) in de-ionized H2O was then added to each well followed by mixing with a pipette to quench the reaction. The plate was then resealed with aluminum seal and stored frozen on dry ice until analyzed as described below.
The above described assays were analyzed by mass spectrometry according to one of the following two procedures:
The MS instrument was set to positive polarity, 2 GHz resolution, and low mass (1700) mode and allowed to equilibrate for 30 minutes. The instrument was then calibrated, switched to acquisition mode and the appropriate method loaded.
After another 30 minute equilibration time, a blank batch (i.e., buffer) was run to ensure equipment is operating properly. The samples were thawed at 37° C. for 10 minutes, briefly centrifuged, and transfered to the bench top. Wells A1 and H12 were spiked with 1 μL 500 μM internal standard peptide, and the plates centrifuged at 2000×g for 5 minutes. The method was then run and masses of each individual well recorded.
The masses (for which integration data is desired) for each well were pasted into the platemap and exported from the analysis. Masses for the internal standards were exported as well. The data at 50 ppm was extracted for the +19 charge state, and identity of well A1 was assigned using the internal standard spike and integrated. Peak data was exported as a TOF list and the above steps were repeated individually, for the +20, +21, +22, +23, +24, and +25 charge states.
The masses and peak intensities of KRAS G12C protein species were measured using a Dionex RSLCnano system (Thermo Scientific) connected to a Q Exactive Plus mass spectrometer (Thermo Scientific).
20 μL of sample was loaded onto a Aeris™ 3.6 μm WIDEPORE C4 200 Å, LC Column 50×2.1 mm column maintained at 40° C. at a flow rate of 600 μL/min with 80% Solvent A (0.1% formic acid in H2O) and 20% Solvent B (0.1% formic acid in acetonitrile). The liquid chromatography conditions were 20% solvent B for 1 minute, 20% to 60% solvent B for 1.5 minutes, 60% to 90% solvent for 0.5 minute, 90% solvent B for 0.2 minute, 90% to 20% solvent B for 0.2 minute, and then equilibrated for 1.6 minute before the following sample injection. The flow rate was maintained at 600 μL/min throughout the sample analysis.
The mass spectrometer was operated in profile mode at a resolution of 17500, 5 microscans, using 50 msec max injection time and an AGC target of 1×10^6, and a full mass range from 800-1850 m/z was recorded. The intact protein mode was applied for optimal ion transfer and maximum sensitivity. The ionization method was electrospray ionization, which used a spray voltage of 4 kV, sheath gas flow set to 50 AU, auxiliary gas flow set to 10 AU and sweep gas flow set to 1 AU. […]

[1] = tested at a concentration of 8 μM

Row | Compound | Bind % (tested at 32 μM) | Bind % [1]
1 | C=CC(=O)N1CCC2(C1)CN(c1cccc(-c3c(C)ccc4cnn(C)c34)c1C#N)C2 [Compound I-11, 2-(6-acryloyl-2,6-diazaspiro[3.4]octan-2-yl)-6-(1,6-dimethyl-1H-indazol-7-yl)benzonitrile] | + (+ indicates binding activity greater than 0% and up to 50%) | 
2 | C=CC(=O)N1CC2(CCN(c3cc(N4CCC(CN(C)C)CC4)c(F)c(-c4c(C)ccc5[nH]ncc45)c3C#N)CC2)C1 [Compound I-136, 6-(2-acryloyl-2,7-diazaspiro[3.5]nonan-7-yl)-4-(4-((dimethylamino)methyl)piperidin-1-yl)-3-fluoro-2-(5-methyl-1H-indazol-4-yl)benzonitrile] |  | + (+ indicates binding activity greater than 0% and up to 50%)
3 | C=CC(=O)N1CC2(CCN(c3cc(OC[C@H]4CCCN4C)c(F)c(-c4c(C)ccc5[nH]ncc45)c3C#N)CC2)C1 [Compound I-127, 6-(2-acryloyl-2,7-diazaspiro[3.5]nonan-7-yl)-3-fluoro-2-(5-methyl-1H-indazol-4-yl)-4-(((R)-1-methylpyrrolidin-2-yl)methoxy) benzonitrile] | ++ (++ indicates binding activity from 50 to 75%) | 
4 | C=CC(=O)N1CC2(CCN(c3cc(OCCCN(C)C)cc(-c4c(C)ccc5cnn(C)c45)c3C#N)C2)C1 [Compound I-35, 2-(2-acryloyl-2,6-diazaspiro[3.4]octan-6-yl)-6-(1,6-dimethyl-1H-indazol-7-yl)-4-(3-(dimethylamino)propoxy) benzonitrile] |  | ++ (++ indicates binding activity from 50 to 75%)
5 | C=CC(=O)N1CC2(CCN(c3ccc(C#N)c(-c4c(C)ccc5[nH]ncc45)c3)C2)C1 [Compound I-101, 4-(2-acryloyl-2,6-diazaspiro[3.4]octan-6-yl)-2-(5-methyl-1H-indazol-4-yl)benzonitrile] | + (+ indicates binding activity greater than 0% and up to 50%) | 
6 | C=CC(=O)N1CC2(CCN(c3cc(OCCCN(C)C)c(F)c(-c4c(C)ccc5[nH]ncc45)c3C#N)CC2)C1 [Compound I-113, 6-(2-acryloyl-2,7-diazaspiro[3.5]nonan-7-yl)-4-(3-(dimethylamino)propoxy)-3-fluoro-2-(5-methyl-1H-indazol-4-yl)benzonitrile] |  | + (+ indicates binding activity greater than 0% and up to 50%)
7 | C=CC(=O)N1CC2(C1)CN(c1ccc(F)c(-c3c(C)ccc4[nH]ncc34)c1C#N)C2 [Compound I-110, 6-(6-acryloyl-2,6-diazaspiro[3.3]heptan-2-yl)-3-fluoro-2-(5-methyl-1H-indazol-4-yl)benzonitrile] |  | + (+ indicates binding activity greater than 0% and up to 50%)
8 | CC#CC(=O)N1CCC2(CC1)CCN(c1cc(OCc3ccccn3)cc(-c3c(C)ccc4[nH]ncc34)c1C#N)C2 [Compound I-59, 2-(8-(but-2-ynoyl)-2,8-diazaspiro[4.5]decan-2-yl)-6-(5-methyl-1H-indazol-4-yl)-4-(pyridin-2-ylmethoxy) benzonitrile] | + (+ indicates binding activity greater than 0% and up to 50%) | 
9 | CC#CC(=O)N1CC2(CCN(c3cccc(-c4c(C)ccc5[nH]nc(N)c45)c3C#N)C2)C1 [Compound I-23, 2-(3-amino-5-methyl-1H-indazol-4-yl)-6-(2-(but-2-ynoyl)-2,6-diazaspiro[3.4]octan-6-yl)benzonitrile] | + (+ indicates binding activity greater than 0% and up to 50%) | 
10 | C=CC(=O)N1CCCC2(CCN(c3cc(OCc4ccccn4)cc(-c4c(C)ccc5[nH]ncc45)c3C#N)C2)C1 (centres unmarked) [Compound I-75, 2-(7-acryloyl-2,7-diazaspiro[4.5]decan-2-yl)-6-(5-methyl-1H-indazol-4-yl)-4-(pyridin-2-ylmethoxy) benzonitrile] | + (+ indicates binding activity greater than 0% and up to 50%) | 
11 | C=CC(=O)N1CCC2(CCN(c3cccc(-c4c(C)ccc5[nH]ncc45)c3C#N)C2)C1 (centres unmarked) [Compound I-22, 2-(7-acryloyl-2,7-diazaspiro[4.4]nonan-2-yl)-6-(5-methyl-1H-indazol-4-yl)benzonitrile] | + (+ indicates binding activity greater than 0% and up to 50%) | 
12 | CC#CC(=O)N1CC2(CCN(c3cccc(-c4c(O)cccc4F)c3C#N)C2)C1 [Compound I-18, 3-(2-(but-2-ynoyl)-2,6-diazaspiro[3.4]octan-6-yl)-2′-fluoro-6′-hydroxy-[1,1′-biphenyl]-2-carbonitrile] | + (+ indicates binding activity greater than 0% and up to 50%) | 
13 | C=CC(=O)N1CC2(CCN(c3cccc(-c4c(C)ccc5cnn(C)c45)c3F)C2)C1 [Compound I-3, 1-(6-(3-(1,6-dimethyl-1H-indazol-7-yl)-2-fluorophenyl)-2,6-diazaspiro[3.4]octan-2-yl)prop-2-en-1-one] | + (+ indicates binding activity greater than 0% and up to 50%) | 
14 | Cc1ccc2[nH]ncc2c1-c1cccc(N2CCC3(CN(C(=O)/C=C/CN(C)C)C3)C2)c1C#N [Compound I-36, (E)-2-(2-(4-(dimethylamino)but-2-enoyl)-2,6-diazaspiro[3.4]octan-6-yl)-6-(5-methyl-1H-indazol-4-yl)benzonitrile] | + (+ indicates binding activity greater than 0% and up to 50%) | 
15 | CC#CC(=O)N1CCC2(CCCN(c3cc(OCc4ccccn4)cc(-c4c(C)ccc5[nH]ncc45)c3C#N)C2)C1 (centres unmarked) [Compound I-63, 2-(2-(but-2-ynoyl)-2,7-diazaspiro[4.5]decan-7-yl)-6-(5-methyl-1H-indazol-4-yl)-4-(pyridin-2-ylmethoxy) benzonitrile] | + (+ indicates binding activity greater than 0% and up to 50%) | 
16 | C=CC(=O)N1CC2(CCN(c3cc(OCCCN(C)C)cc(-c4c(C)ccc5[nH]ncc45)c3C#N)C2)C1 [Compound I-27, 2-(2-acryloyl-2,6-diazaspiro[3.4]octan-6-yl)-4-(3-(dimethylamino)propoxy)-6-(5-methyl-1H-indazol-4-yl)benzonitrile] |  | ++ (++ indicates binding activity from 50 to 75%)
17 | C=CC(=O)N1CCCC2(C1)CN(c1cc(OCc3ccccn3)cc(-c3c(C)ccc4[nH]ncc34)c1C#N)C2 [Compound I-66, 2-(6-acryloyl-2,6-diazaspiro[3.5]nonan-2-yl)-6-(5-methyl-1H-indazol-4-yl)-4-(pyridin-2-ylmethoxy) benzonitrile] | + (+ indicates binding activity greater than 0% and up to 50%) | 
18 | C=CC(=O)N1CC2(CCN(c3cc(N4CCC(N(C)C)CC4)cc(-c4c(C)ccc5[nH]ncc45)c3C#N)C2)C1 [Compound I-24, 2-(2-acryloyl-2,6-diazaspiro[3.4]octan-6-yl)-4-(4-(dimethylamino)piperidin-1-yl)-6-(5-methyl-1H-indazol-4-yl)benzonitrile] | +++ (+++ indicates binding activity greater than 75%) | 
19 | C=CC(=O)N1CC2(CCN(c3ccc(Cl)c(-c4c(C)ccc5[nH]ncc45)c3C#N)C2)C1 [Compound I-98, 6-(2-acryloyl-2,6-diazaspiro[3.4]octan-6-yl)-3-chloro-2-(5-methyl-1H-indazol-4-yl)benzonitrile] |  | ++ (++ indicates binding activity from 50 to 75%)
20 | C=CC(=O)N1CC2(CCN(c3ccc(F)c(-c4c(C)ccc5[nH]ncc45)c3C#N)CC2)C1 (atropisomer, axis not shown) [Compound I-141, (S)-6-(2-acryloyl-2,7-diazaspiro[3.5]nonan-7-yl)-3-fluoro-2-(5-methyl-1H-indazol-4-yl)benzonitrile] | + (+ indicates binding activity greater than 0% and up to 50%) | 
